Measured values reported in BigSolDB 2.1.

Cn1cc[n+](CCCC[n+]2ccn(C)c2)c1.F[P-](F)(F)(F)(F)F.F[P-](F)(F)(F)(F)F
Details | solubility (mole fraction)
in 2-butanone, 283.15 K | 0.00838
in 2-butanone, 288.15 K | 0.00936
in 2-butanone, 294.15 K | 0.0114
in 2-butanone, 299.15 K | 0.014
in 2-butanone, 304.15 K | 0.0178
in 2-butanone, 309.15 K | 0.0235
in 2-butanone, 315.15 K | 0.0349
in 2-butanone, 320.15 K | 0.0496
in 2-butanone, 325.15 K | 0.0728
in acetophenone, 299.65 K | 0.00127
in acetophenone, 303.65 K | 0.00198
in acetophenone, 307.35 K | 0.00285
in acetophenone, 313.15 K | 0.00472
in acetophenone, 318.15 K | 0.00677
in acetophenone, 323.15 K | 0.00919
in acetophenone, 328.15 K | 0.0117
in acetophenone, 332.15 K | 0.0137
in acetylacetone, 283.15 K | 0.00252
in acetylacetone, 288.15 K | 0.0026
in acetylacetone, 293.15 K | 0.00295
in acetylacetone, 297.45 K | 0.00352
in acetylacetone, 302.65 K | 0.00473
in acetylacetone, 309.15 K | 0.00768
in acetylacetone, 314.15 K | 0.0121
in acetylacetone, 320.15 K | 0.0227
in acetylacetone, 325.15 K | 0.0409
in acetylacetone, 330.15 K | 0.0784
in cyclohexanone, 283.15 K | 0.000563
in cyclohexanone, 288.15 K | 0.0009
in cyclohexanone, 293.15 K | 0.00138
in cyclohexanone, 298.35 K | 0.00206
in cyclohexanone, 302.15 K | 0.00271
in cyclohexanone, 308.65 K | 0.0041
in cyclohexanone, 313.15 K | 0.00529
in cyclohexanone, 318.25 K | 0.00688
in cyclohexanone, 323.15 K | 0.00857
in cyclohexanone, 328.15 K | 0.0105
in cyclohexanone, 333.15 K | 0.0124
in water, 283.15 K | 9.5e-05
in water, 288.45 K | 0.000124
in water, 293.15 K | 0.000156
in water, 298.15 K | 0.000203
in water, 303.65 K | 0.000274
in water, 308.15 K | 0.000348
in water, 313.15 K | 0.000456
in water, 318.35 K | 0.000608
in water, 323.15 K | 0.00079
in water, 328.15 K | 0.00105
in water, 333.15 K | 0.00138
